In patent US20240284907A1, “NOVEL DERIVATIVES OF NON-CODED AMINO ACIDS AND THEIR USE AS HERBICIDES” (FortePhest LTD., priority 2021, published 2024):

Columns and labels:
[1] = system: Seeds of Lettuce R. (Super-Jericho); experiment: Filter paper bioassay with lettuce seeds: germination and early plant development, Minimal Effective Concentration (MEC); format: in vivo; conditions: lettuce seeds on filter paper, 0 to 1 mmol/l, visually assessed after 6 days
Text: Materials: Seeds of Lettuce R. (Super-Jericho, non-sterilized) were obtained from Ben Shahar Moshe Ltd., 99% purity. The test compounds listed in the Table 2 below were synthetized de novo or purchased from different vendors.
Filter Paper Bioassays with Lettuce seeds: The protocol is following Bertin et al. 2009 and Movellan et al. 2014 with specified modifications as described below.
Seeds were placed on Whatman no. 1 filter paper (Whatman, Middlesex, U.K.) in Petri dishes (10 seeds per plate) with 2.0 ml of aqueous solution of a test material in concentration ranged from 0 (control) to 1 mmol/l were placed in a tray tilted at 45[…]. The trays were kept in dark for 48 hours and then transferred to the growth chamber with 6/18 dark/light cycle for 4 days. Each experiment was performed at least with two repeats.
The development of plants' radicle and shoots were visually assessed 6 days after the beginning of the test to determine Minimal Effective Concentration (MEC) of a test material. In the context of the invention, MEC is defined as the lowest concentration level of a test material that caused deviation (absence of germination or malformation of radicle or shoots) from the plant's development in the Control group.

[2] = system: Romaine lettuce (Lactuca sativa L.) plants; experiment: Post-emergence herbicidal activity on potted Romaine lettuce plants (soil or foliar application); format: in vivo; conditions: lettuce at 2 to 3 leaves, two weeks after treatment
Description: The tests were performed on Romaine lettuce (Lactuca sativa L.) plants at the stage 2 to 3 leaves. The plants were grown in mini-pots packed with soil, dimensions 2×2×5 cm, one plant per mini-pot. Test compounds were dissolved in 0.1% aqueous solution water solution of Silwet adjuvant to final concentrations ranging from 0 (Control) to 0.0001%. The test compounds were applied on soil (1 ml per pot) or foliar with airbrush (0.1 ml per pot). Each concentration was tested on 20 plants. Two weeks after the treatment the herbicidal effects of the respective test material were visually evaluated (aboveground part and roots. Then the aboveground part of the plants was neatly cut and weighed (wet weight) to assess the growth inhibition caused by the test compound. The growth inhibition (GI) was calculated as following: […]
Where Mt and Mc are median wet weight of treated and control plants, respectively. In the context of the invention, the herbicidal effect was assessed by concentration of the compound causing more than 85% of Growth Inhibition (GI) or irreversible damage of the plants (Table 3). Herbicidal activity of selected DHAAs is summarized in Table 4 (soil application) and Table 5 (Foliar application).

Row | Compound | Score (activity score of Minimal Effective Concentration, MEC) [1] | Score (test material causing more than 85% of Growth Inhibition or irreversible plant damage) ([2]; soil application) | Score (test material causing more than 85% of Growth Inhibition or irreversible plant damage) ([2]; foliar application)
1 | 2-(2-chloro-1,3-thiazol-4-yl)-2,2-difluoroethan-1-ol [compound 5724] | Moderate (0.1 mM) | strong (0.01 to 0.05) | 
2 | 2-(5-chlorothiophen-3-yl)-2,2-difluoroacetic acid [compound 5625] | Strong (0.01 mM) | strong (0.01 to 0.05) | strong (0.01 to 0.05)
3 | O=C(O)Cc1cc(Br)nc(Br)c1 [compound 689, 2-(2,6-dibromopyridin-4-yl)acetic acid] | Moderate (0.1 mM) | moderate (0.5) | 
4 | NC(=O)CCCc1cc(Cl)sc1Cl [compound 5600, 4-(2,5-dichlorothiophen-3-yl)butanamide] | Weak (Higher than 0.1 mM) | moderate (0.5) | 
5 | CC(=O)NCCc1cc(Cl)sc1Cl [compound 5629, N-[2-(2,5-dichlorothiophen-3-yl)ethyl]acetamide] |  | moderate (0.5) | 
6 | CC(=O)NCCc1nc(Cl)sc1Cl [compound 5650, N-[2-(2,5-dichloro-1,3-thiazol-4-yl)ethyl]acetamide] |  | moderate (0.5) | 
7 | COC(=O)C(Cl)c1cc(Cl)sc1Cl (stereo not shown) [compound 5656, methyl 2-chloro-2-(2,5-dichlorothiophen-3-yl)acetate] |  | moderate (0.5) | 
8 | CCOC(=O)Cc1nc(Br)sc1C [compound 5661, ethyl 2-(2-bromo-5-methyl-1,3-thiazol-4-yl)acetate] | Moderate (0.1 mM) | moderate (0.5) | moderate (0.5)
9 | O=C(Cc1cc(Cl)sc1Cl)OCc1ccccc1 [compound 5669, benzyl 2-(2,5-dichlorothiophen-3-yl)acetate] |  | strong (0.01 to 0.05) | strong (0.01 to 0.05)
10 | CONCCc1cc(Cl)sc1Cl [compound 5670, 2-(2,5-dichlorothiophen-3-yl)-N-methoxyethan-1-amine] | Moderate (0.1 mM) | moderate (0.5) | 
11 | N=C(N)NCc1cccc(Br)n1 [compound 6636, N-[(6-bromopyridin-2-yl)methyl]guanidine] | Moderate (0.1 mM) |  | 
12 | NCCCc1ccnc(Br)c1 [compound 6649, 3-(2-bromopyridin-4-yl)propan-1-amine] | Moderate (0.1 mM) |  | 
13 | O=C(O)C(F)(F)c1cccc(-c2ccc(C(F)(F)F)cc2F)n1 [compound 6659, 2,2-difluoro-2-{6-[2-fluoro-4-(trifluoromethyl)phenyl]pyridin-2-yl}acetic acid] | Moderate (0.1 mM) |  | 
14 | O=C(O)C(F)(F)c1nc(F)c(F)cc1F [compound 6660, difluoro(3,5,6-trifluoropyridin-2-yl)acetic acid] | Moderate (0.1 mM) |  | 
15 | O=C(O)C(F)c1nc(F)c(F)cc1F (stereo not shown) [compound 6661, 2-fluoro-2-(3,5,6-trifluoropyridin-2-yl)acetic acid] | Moderate (0.1 mM) |  | 
16 | NC(Cc1cccc(Br)c1)C(=O)O (stereo not shown) [compound 6669, 2-amino-3-(3-bromophenyl)propanoic acid] | Moderate (0.1 mM) |  | 
17 | O=C(O)C(F)(F)c1ccc(F)c(Br)n1 [compound 6681, (6-bromo-5-fluoropyridin-2-yl)(difluoro)acetic acid] | very strong |  | 
18 | O=C(O)C(F)(F)c1ccc(C(F)(F)F)c(Br)n1 [compound 6682, [6-bromo-5-(trifluoromethyl)pyridin-2-yl](difluoro)acetic acid] | Strong (0.01 mM) |  | 
19 | (2,6-dibromopyridin-4-yl)-2,2-difluoroacetic acid [compound 6632] | Weak (Higher than 0.1 mM) |  | 
20 | (2-bromopyridin-4-yl)(oxo)acetic acid [compound 6626] | Moderate (0.1 mM) |  | 
21 | (2E)-3-(2-bromo-strong-nitropyridin-4-yl)prop-2-enoic acid [compound 6608] | Moderate (0.1 mM) |  | 
22 | (2E)-3-(3-chloro-1H-1,2,4-triazol-5-yl)prop-2-enoic acid [compound 5621] | Weak (Higher than 0.1 mM) |  | 

Row | Compound | Score (activity score of Minimal Effective Concentration, MEC) [1] | Score (test material causing more than 85% of Growth Inhibition or irreversible plant damage) ([2]; soil application) | Score (test material causing more than 85% of Growth Inhibition or irreversible plant damage) ([2]; foliar application)
23 | (2E)-3-(5-chlorothiophen-2-yl)prop-2-enoic acid [compound 5607] | Moderate (0.1 mM) |  | 
24 | (6-bromopyridin-2-yl)methyl 2-(2-chlorothiophen-3-yl)acetate [compound 5802] | Moderate (0.1 mM) |  | 
25 | N-(6-bromopyridin-2-yl)guanidine hydrochloride [compound 6637] | Weak (Higher than 0.1 mM) |  | 
26 | N-[2-(2,5-dichlorothiophen-3-yl)ethyl]-N′-(2-hydroxypropyl)guanidine [compound 5727] | Moderate (0.1 mM) |  | 
27 | N-{2-[3-(2,5-dichlorothiophen-3-yl)propoxy]phenyl}guanidine [compound 5732] | Moderate (0.1 mM) |  | 
28 | N′-[2-(2,5-dichlorothiophen-3-yl)ethyl]-N-(3-hydroxypropyl)guanidine [compound 5725] | Moderate (0.1 mM) |  | 
29 | [2,5-bis(trifluoromethyl)-1,3-thiazol-4-yl](difluoro)acetic acid [compound 5744] | Moderate (0.1 mM) |  | 
30 | [2-(2,5-dichlorothiophen-3-yl)ethyl]hydrazine [compound 5705] | Moderate (0.1 mM) |  | 
31 | [3-(2-bromo-1,3-thiazol-4-yl)propyl]phosphonic acid [compound 5774] | Weak (Higher than 0.1 mM) |  | 
32 | [(2,5-dichlorothiophen-3-yl)methyl]hydrazine [compound 5610] | Weak (Higher than 0.1 mM) |  | 
33 | [(2-bromo-1,3-thiazol-4-yl)(difluoro)methyl]phosphonic acid [compound 5737] | Weak (Higher than 0.1 mM) |  | 
34 | dichloro-1,3-thiazole-4-carboxamide [compound 5616] | Moderate (0.1 mM) |  | 
35 | difluoro[4-(trifluoromethyl)-1,3-thiazol-2-yl]acetic acid [compound 5760] | Moderate (0.1 mM) |  | 
36 | ethyl 2-(2-amino-5-chloro-1,3-thiazol-4-yl)-2,2-difluoroacetate [compound 5729] | Weak (Higher than 0.1 mM) |  | 
37 | ethyl 2-(2-chlorooxazol-4-yl)-2,2-difluoroacetate [compound 5783] | Moderate (0.1 mM) |  | 
38 | ethyl difluoro[5-(trifluoromethyl)thiophen-3-yl]acetate [compound 5707] | Weak (Higher than 0.1 mM) |  | 
39 | methyl 2-(2-bromopyridin-4-yl)-2,2-difluoroacetate [compound 6629] | Moderate (0.1 mM) |  | 
40 | naphthalene-2-carboxylic acid [compound 691] | Weak (Higher than 0.1 mM) |  | 
41 | propyl[2-(1H-1,2,4-triazol-3-yl)ethyl]amine [compound 5660] | Weak (Higher than 0.1 mM) |  | 
42 | sodium 2-(2-chloro-1,3-thiazol-5-yl)-2,2-difluoroacetate [compound 5721] | Moderate (0.1 mM) |  | 
43 | {2-[(6-amino-9H-purin-9-yl)methoxy]ethoxy}methyl(2-chloro-1,3-thiazol-4-yl)acetate [compound 5752] | Moderate (0.1 mM) |  | 
